Assay results taken from patent US20250304594A1, “METHYL (R)-2-(FLUOROMETHYL)-5-OXO-4-PHENYL-4,5,6,7-TETRAHYDRO-1H-CYCLOPENTA[B]PYRIDINE-3-CARBOXYLATE AND METHYL (R)-2-(FLUOROMETHYL)-5-OXO-4-PHENYL-1,4,5,7-TETRAHYDROFURO[3,4-B]PYRIDINE-3-CARBOXYLATE AS Cav1,2 ACTIVATORS” (Novartis AG, priority 2020, published 2025).
Blank lines part the entries; values can stand above or below the compound they belong to.

Legend:
[1] = Compound exposure in wild-type mice (brain and blood levels); type: in vivo, C57BL/6J male mice; settings: male, C57BL/6J, mouse, brain (cerebellum) / blood, intraperitoneal, Table 10 comparative examples; read-out: Brain:blood ratio
Procedure: Compound administration and brain tissue collection. Wild-type C57BL/6J male mice were obtained from Jackson laboratories (Bar Harbor, ME). The acute, single-dose effects of CaV1.2 activators of the present disclosure were evaluated in male eight-week old mice (n=6 mice per compound). Each compound was dissolved in 10% PEG300, 10% Solutol, 10% Cremophore EL, and 70% Phosphate Buffered Saline and administered intraperitoneal (i.p.) at a concentration of 1 mg/kg up to 30 mg/kg depending on the compound. Animals were euthanized one hour after compound administration via exsanguination under deep anesthesia. Blood was collected in EDTA tubes for downstream analysis of drug levels. Brains were rapidly removed from the skull, and the cerebral cortex and cerebellum were regionally dissected. Cerebellar samples were snap frozen in liquid nitrogen to assess compound exposure. Cortical samples for cFos assessment were placed in 500 μl of RNAlater solution (ThermoFisher) to preserve the integrity of RNA in the sample. Samples remained in RNAlater for at least 24 hours at 4° C. before moving to −80° C. for storage before processing.
Quantification of compound exposure. Cerebellar tissue samples were homogenized in 4 ml of 20% acetonitrile and 80% Phosphate buffered saline for every 1 g of tissue (5× dilution). Tissue was homogenized using either of the following three methods: hand held probe system, TissueLyser system with 5 mm steel bead at a frequency of 30 s^−1 for 4 min, or OMNI Bead Ruptor Elite homogenizer for 30 seconds to 1 minute depending on tissue type. Tissue samples were added to a 96-well plate (12.5 uL sample) and processed for quantification by mass spectrometry.

human CaV1.2 [2] = biological target: T1, human CaV1.2 (Homo sapiens, UniProt Q13936); assay: QPatch channel biophysics assay (channel gating, V1/2 of activation, inactivation) in CaV1.2-HEK293(AUX) cells; type: cell-based; settings: Table 10 comparative examples
T1 construct: expressed in transfected cells; host or cells: Flp-In 293 T-Rex (HEK293), monoclonal CaV1.2-HEK293(AUX) clone 2-19B; doxycycline-induced auxiliary subunits
T1 sequence (Q13936 1-2138 isoform Q13936-23): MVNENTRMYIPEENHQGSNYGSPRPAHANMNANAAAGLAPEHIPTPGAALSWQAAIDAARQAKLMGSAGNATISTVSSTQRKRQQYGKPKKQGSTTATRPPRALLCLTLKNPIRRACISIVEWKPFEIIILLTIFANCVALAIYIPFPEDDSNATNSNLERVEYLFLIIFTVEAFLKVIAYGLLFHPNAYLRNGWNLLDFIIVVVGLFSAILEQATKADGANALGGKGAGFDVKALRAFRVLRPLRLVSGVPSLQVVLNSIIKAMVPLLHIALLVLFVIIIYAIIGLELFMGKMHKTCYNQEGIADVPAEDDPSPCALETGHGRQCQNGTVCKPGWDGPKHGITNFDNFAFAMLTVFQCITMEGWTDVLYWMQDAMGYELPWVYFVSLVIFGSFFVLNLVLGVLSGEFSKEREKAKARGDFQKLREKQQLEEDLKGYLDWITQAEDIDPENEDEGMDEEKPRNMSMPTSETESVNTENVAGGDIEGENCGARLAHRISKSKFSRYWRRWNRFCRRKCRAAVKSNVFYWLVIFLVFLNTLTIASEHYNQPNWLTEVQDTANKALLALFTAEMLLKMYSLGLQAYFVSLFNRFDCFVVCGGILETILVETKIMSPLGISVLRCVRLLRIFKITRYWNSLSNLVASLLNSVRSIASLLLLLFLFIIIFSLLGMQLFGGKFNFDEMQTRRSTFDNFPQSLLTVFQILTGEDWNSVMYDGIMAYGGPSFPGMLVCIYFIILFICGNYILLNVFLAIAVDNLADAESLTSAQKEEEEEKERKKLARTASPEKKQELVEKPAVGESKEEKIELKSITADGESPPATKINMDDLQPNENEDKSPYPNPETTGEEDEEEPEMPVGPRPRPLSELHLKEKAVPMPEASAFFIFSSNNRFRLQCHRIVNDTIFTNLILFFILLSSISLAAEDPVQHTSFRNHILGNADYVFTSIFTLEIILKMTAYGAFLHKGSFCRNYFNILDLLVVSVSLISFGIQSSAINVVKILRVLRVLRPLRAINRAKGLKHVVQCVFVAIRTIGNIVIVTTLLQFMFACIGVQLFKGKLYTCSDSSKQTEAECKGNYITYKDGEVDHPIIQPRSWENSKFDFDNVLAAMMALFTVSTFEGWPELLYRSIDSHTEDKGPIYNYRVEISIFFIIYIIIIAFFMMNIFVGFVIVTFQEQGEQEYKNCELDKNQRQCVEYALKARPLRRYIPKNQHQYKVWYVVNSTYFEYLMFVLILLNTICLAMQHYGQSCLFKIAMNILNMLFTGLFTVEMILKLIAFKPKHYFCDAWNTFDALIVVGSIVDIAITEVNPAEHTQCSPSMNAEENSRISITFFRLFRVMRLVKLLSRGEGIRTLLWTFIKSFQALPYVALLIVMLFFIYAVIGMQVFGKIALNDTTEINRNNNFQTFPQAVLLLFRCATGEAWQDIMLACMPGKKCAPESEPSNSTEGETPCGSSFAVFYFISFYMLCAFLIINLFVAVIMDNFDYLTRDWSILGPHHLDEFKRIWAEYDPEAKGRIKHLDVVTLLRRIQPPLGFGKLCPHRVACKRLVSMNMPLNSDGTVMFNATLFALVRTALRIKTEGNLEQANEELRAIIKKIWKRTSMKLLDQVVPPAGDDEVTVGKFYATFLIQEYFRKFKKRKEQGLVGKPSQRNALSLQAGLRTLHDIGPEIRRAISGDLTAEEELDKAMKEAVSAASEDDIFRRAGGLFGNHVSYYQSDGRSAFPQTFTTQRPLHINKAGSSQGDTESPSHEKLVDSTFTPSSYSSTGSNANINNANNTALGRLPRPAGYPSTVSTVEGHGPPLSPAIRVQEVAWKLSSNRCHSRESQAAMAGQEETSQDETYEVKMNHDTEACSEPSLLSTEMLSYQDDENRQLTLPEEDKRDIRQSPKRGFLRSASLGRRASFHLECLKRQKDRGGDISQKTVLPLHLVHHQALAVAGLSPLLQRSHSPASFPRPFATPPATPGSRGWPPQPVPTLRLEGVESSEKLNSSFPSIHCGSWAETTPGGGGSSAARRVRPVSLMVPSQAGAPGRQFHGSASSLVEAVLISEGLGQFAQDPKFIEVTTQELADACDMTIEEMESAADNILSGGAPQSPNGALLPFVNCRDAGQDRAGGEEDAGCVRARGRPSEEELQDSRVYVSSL
T1 sequence (Q9NY47 19-1001 partner limits assumed): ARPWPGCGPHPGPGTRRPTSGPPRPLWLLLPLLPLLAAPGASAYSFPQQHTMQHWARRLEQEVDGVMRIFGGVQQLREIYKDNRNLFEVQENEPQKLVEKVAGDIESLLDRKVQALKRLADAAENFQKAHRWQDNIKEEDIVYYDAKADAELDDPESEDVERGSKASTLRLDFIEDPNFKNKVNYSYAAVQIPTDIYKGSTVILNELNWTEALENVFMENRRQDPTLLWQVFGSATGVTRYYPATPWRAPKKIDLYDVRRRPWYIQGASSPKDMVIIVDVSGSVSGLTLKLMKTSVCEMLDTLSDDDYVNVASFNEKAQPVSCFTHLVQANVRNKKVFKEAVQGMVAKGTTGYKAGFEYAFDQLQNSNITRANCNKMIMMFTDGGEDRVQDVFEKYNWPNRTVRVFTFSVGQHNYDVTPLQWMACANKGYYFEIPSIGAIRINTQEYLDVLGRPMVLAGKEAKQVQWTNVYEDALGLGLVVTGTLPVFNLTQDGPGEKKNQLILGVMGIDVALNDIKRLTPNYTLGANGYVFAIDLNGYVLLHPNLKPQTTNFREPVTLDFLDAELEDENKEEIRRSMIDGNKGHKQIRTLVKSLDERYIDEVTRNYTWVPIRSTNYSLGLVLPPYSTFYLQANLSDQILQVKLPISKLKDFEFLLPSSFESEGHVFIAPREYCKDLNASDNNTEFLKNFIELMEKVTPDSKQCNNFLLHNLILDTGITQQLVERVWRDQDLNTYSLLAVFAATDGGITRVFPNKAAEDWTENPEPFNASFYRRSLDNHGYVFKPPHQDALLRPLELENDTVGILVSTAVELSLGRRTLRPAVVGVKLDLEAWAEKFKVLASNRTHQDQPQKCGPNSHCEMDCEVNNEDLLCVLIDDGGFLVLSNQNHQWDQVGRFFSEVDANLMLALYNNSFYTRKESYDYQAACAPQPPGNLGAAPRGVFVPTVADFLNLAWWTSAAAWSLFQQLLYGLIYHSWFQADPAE
T1 sequence (Q9NY47 1002-1150 partner limits assumed): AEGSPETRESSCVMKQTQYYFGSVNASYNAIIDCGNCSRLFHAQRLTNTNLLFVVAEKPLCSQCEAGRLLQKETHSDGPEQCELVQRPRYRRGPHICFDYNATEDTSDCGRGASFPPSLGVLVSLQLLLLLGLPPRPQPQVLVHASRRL
T1 sequence (Q08289 whole entry partner): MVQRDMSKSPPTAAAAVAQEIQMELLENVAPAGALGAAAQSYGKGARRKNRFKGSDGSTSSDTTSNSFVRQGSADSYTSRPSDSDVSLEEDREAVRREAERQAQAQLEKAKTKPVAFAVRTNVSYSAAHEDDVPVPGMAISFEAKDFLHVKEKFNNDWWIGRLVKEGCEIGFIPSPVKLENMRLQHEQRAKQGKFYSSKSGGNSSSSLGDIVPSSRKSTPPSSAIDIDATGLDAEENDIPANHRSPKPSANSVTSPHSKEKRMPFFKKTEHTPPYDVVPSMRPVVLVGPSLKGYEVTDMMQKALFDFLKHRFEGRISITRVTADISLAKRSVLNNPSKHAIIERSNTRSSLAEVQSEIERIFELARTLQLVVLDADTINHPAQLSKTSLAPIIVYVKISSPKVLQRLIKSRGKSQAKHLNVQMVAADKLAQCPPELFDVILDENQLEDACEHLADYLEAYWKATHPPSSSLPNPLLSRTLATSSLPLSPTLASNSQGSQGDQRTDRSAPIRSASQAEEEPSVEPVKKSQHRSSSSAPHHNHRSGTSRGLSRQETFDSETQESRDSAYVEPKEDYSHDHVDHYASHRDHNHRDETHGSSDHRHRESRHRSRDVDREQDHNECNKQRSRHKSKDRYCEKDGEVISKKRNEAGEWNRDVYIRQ
Description: (§1) The monoclonal CaV1.2-HEK293(AUX) cell line constitutively expresses human CaV1.2 alpha1C (α1C) subunit (CACNA1C) and has doxycycline-inducible expression of the alpha2delta (α2Δ2) auxiliary subunit (CACNA2D2) and beta2 (02) auxiliary subunit (CACNB2). To generate the cell line, expression vectors pcDNA5.0/FRT-TO-CACNA2D2-FCS-P2A-CACNB2 and pCMV6-entry-CACNA1C were established via gene synthesis and cloning. Here, pcDNA5.0/FRT-TO plasmid is from Invitrogen, pCMV6-entry is from Origene, FCS stands for Furin Cleavage Site, P2A is a peptide self-cleavage sequence derived from porcine teschovirus-1, and FRT is the Flippase recognition target site. Next, parental line Flp-In™ 293 T-Rex (Invitrogen) was transfected with pcDNA5.0/FRT-TO-CACNA2D2-FCS-P2A-CACNB2 and Flippase vector pOG44 (Invitrogen) to establish targeted integration of the CACNA2D2-FCS-P2A-CACNB2 expression cassette into the pre-engineered FRT site in Flp-In™ 293 T-Rex. This intermediate cell line was then transfected with pCMV6-entry-CACNA1C to establish stable CACNA1C expression. Clonal isolation was achieved under Neomycin selection. A cell clone (2-19B) with good voltage-dependent Barium current (see electrophysiology methods below) was selected for characterization of CaV1.2 activators.
(§2) 24 hours prior an electrophysiology experiment, doxycycline (1 μg/ml) was added to the growth medium (Table 6), and 25 μM of verapamil was co-applied to prevent calcium influx triggered cell death. Cell confluency should reach 70%-80% right before the experiment. To harvest cells (from a T175 cm^2 flask as an example), growth media were removed completely, and the cells were rinsed with 10 mL of D-PBS. D-PBS was aspirated, and 10 mL of Detachin (Genlantis) was added and the plate was placed in a 37° C. incubator for 10 minutes. Detached cells were placed into a 15 mL conical tube and spun at 1000 rpm for 2 minutes. Supernatant was removed, and cells were re-suspended in QPatch complete media (Table 7) to desired cell density of 1.5-3 million cells per QPatch run. Each experimental run uses 1.5 mL of cells.
The cells suspension was taken to the Sophion QPatch platform that uses whole-cell voltage clamp to measure barium currents conducted through CaV1.2 on single-hole QPlates. Extracellular and intracellular patch clamp solutions are described in Tables 7 and 8, respectively. A dose-response assay protocol was used to determine the maximal fold change of peak inward current (Emax) and potency (EC50) of each compound. The protocol had eight liquid periods. The first liquid period was to stabilize current amplitude, which was monitored using repetitive 200-ms voltage pulses stepping from −80 mV to 0 mV. The second liquid period was to determine baseline current amplitude in the presence of vehicle control, using a single 20-ms voltage pulse stepping from −80 mV to 0 mV. The third through eighth liquid periods were used to ascertain a 6-dose response to compound treatments, also using single 20-ms voltage pulses stepping from −80 mV to 0 mV. The EC50 was generated using the following equation Iconcentration=Ibase+(Ifull−Ibase)*c^n/(XC50^n+c^n), where c is the concentration and n is the Hill coefficient constant. Ifull is the maximal current achievable, and Ibase is 0. A channel biophysics assay protocol was used to determine channel gating properties including current-voltage relationship (IV curves), half-way channel activation voltage (V1/2), rate of channel inactivation (tau), and amplitude of tail current. Among these, V1/2 was derived from fitting equation G(V)=Gvmin+(Gvmax−Gvmin)/(1+exp(−(V−V½)/Vslope)), where G stands for conductance, Gvmin equals 0, Gvmax is the maximal conductance, and Vslope is a slope factor. G(V) was pre-calculated from equation G(V)=I(V)/(V−0.06), for each experimentally applied depolarization potential (V) and the corresponding current amplitude (I(V)), and 0.06 in the equation was the experimentally determined reversal potential in volts. […]

human CaV1.2 [3] = biological target: T1, human CaV1.2; assay: Sophion QPatch dose-response assay, whole-cell voltage clamp of barium currents in CaV1.2-HEK293(AUX) cells; type: cell-based; settings: Table 10 comparative examples; maximal fold change of peak inward current
Description: as §1, with “selection.” for “selection. A cell clone (2-19B) with good voltage-dependent Barium current (see electrophysiology methods below) was selected for characterization of CaV1.2 activators.”
Electrophysiological Characterization of CaV1.2 Activators Using CaV1.2-HEK293(AUX) Cell Line and QPatch
as §2
The cells suspension was taken to the Sophion QPatch platform that uses whole-cell voltage clamp to measure barium currents conducted through CaV1.2 on single-hole QPlates. Extracellular and intracellular patch clamp solutions are described in Tables 7 and 8, respectively. A dose-response assay protocol was used to determine the maximal fold change of peak inward current (Emax) and potency (EC50) of each compound. The protocol had eight liquid periods. The first liquid period was to stabilize current amplitude, which was monitored using repetitive 200-ms voltage pulses stepping from −80 mV to 0 mV. The second liquid period was to determine baseline current amplitude in the presence of vehicle control, using a single 20-ms voltage pulse stepping from −80 mV to 0 mV. The third through eighth liquid periods were used to ascertain a 6-dose response to compound treatments, also using single 20-ms voltage pulses stepping from −80 mV to 0 mV. The EC50 was generated using the following equation Iconcentration=Ibase+(Ifull−Ibase)*c^n/(XC50^n+c^n), where c is the concentration and n is the Hill coefficient constant. Ifull is the maximal current achievable, and Ibase is 0. A channel biophysics assay protocol was used to determine channel gating properties including current-voltage relationship (IV curves), half-way channel activation voltage (V1/2), rate of channel inactivation (tau), and amplitude of tail current. Among these, V1/2 was derived from fitting equation G(V)=Gvmin+(Gvmax−Gvmin)/(1+exp(−(V−V½)/Vslope)), where G stands for conductance, Gvmin equals 0, Gvmax is the maximal conductance, and Vslope is a slope factor. G(V) was pre-calculated from equation G(V)=I(V)/(V−0.06), for each experimentally applied depolarization potential (V) and the corresponding current amplitude (I(V)), and 0.06 in the equation was the experimentally determined reversal potential in volts. The protocol had four liquid periods.

[4] = Hygroscopicity / water sorption of crystalline hydrates versus relative humidity; type: physicochemical

Kp at 1 h [1]: 0.23
Compound: CCOC(=O)C1=C(C)NC2=C(C(=O)OC2)[C@H]1c1ccccc1OC(F)F (single isomer, unassigned) [CGP028392, reference compound]
Biophysics voltage shift (mV) (human CaV1.2 [2]): −6.7 mV
Qpatch Emax (human CaV1.2 [3]): 2.2

hygroscopicity [4]: slightly hygroscopic
water uptake ([4]; between 10% to 95% RH at 25° C.): about 0.2%
Compound: COC(=O)C1=C(CF)NC2=C(C(=O)OC2)[C@H]1c1cccc(F)c1[C@@H](C)F [Hydrate A, methyl (R)-4-(3-fluoro-2-((R)-1-fluoroethyl)phenyl)-2-(fluoromethyl)-5-oxo-1,4,5,7-tetrahydrofuro[3,4-b]pyridine-3-carboxylate]

water uptake upon subsequent increase of the relative humidity ([4]; 25° C.): about 3%
loss of water on dehydration ([4]; starts below 20% RH, until 0% RH): about 4.4%
Compound: COC(=O)C1=C(CF)NC2=C(C(=O)OC2)[C@H]1c1cccc(F)c1[C@@H](C)F [Hydrate B, methyl (R)-4-(3-fluoro-2-((R)-1-fluoroethyl)phenyl)-2-(fluoromethyl)-5-oxo-1,4,5,7-tetrahydrofuro[3,4-b]pyridine-3-carboxylate]
